Where “and” joins values, the source holds several entries; their conditions need not be identical. Equal values may be shown once.
System: 323965-272-R-J2-PDC complex spheroid viability
Test: Anticancer human tumor 323965-272-R-J2-PDC patient-derived pancreatic carcinoma cell line growth inhibition [CLK]
Settings: for viability, T/C: stronger effect = lower value; active = viability on the fitted dose curve at most 10% of control; inactive = the rest
Summary of the method: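 Multi-cell-type spheroids combined patient-derived tumor cells with HUVEC endothelial cells and human mesenchymal stem cells. Paired agents were dosed in half-log steps down from about clinical Cmax, or from 10 microM where Cmax was unknown.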

[1] = curve of first compound, second compound 0.0316 µM
[2] = curve of first compound, second compound 0.1 µM
[3] = curve of first compound, second compound 0.316 µM
[4] = curve of first compound, second compound 1 µM
[5] = curve of first compound, second compound 3.16 µM
[6] = curve of first compound, second compound 10 µM
[7] = second compound 0.0316 µM, first compound 0.0316 µM
[8] = second compound 0.0316 µM, first compound 0.1 µM
[9] = second compound 0.0316 µM, first compound 0.316 µM
[10] = second compound 0.0316 µM, first compound 1 µM
[11] = second compound 0.0316 µM, first compound 3.16 µM
[12] = second compound 0.0316 µM, first compound 10 µM
[13] = second compound 0.1 µM, first compound 0.0316 µM
[14] = second compound 0.1 µM, first compound 0.1 µM
[15] = second compound 0.1 µM, first compound 0.316 µM
[16] = second compound 0.1 µM, first compound 1 µM
[17] = second compound 0.1 µM, first compound 3.16 µM
[18] = second compound 0.1 µM, first compound 10 µM
[19] = second compound 0.316 µM, first compound 0.0316 µM
[20] = second compound 0.316 µM, first compound 0.1 µM
[21] = second compound 0.316 µM, first compound 0.316 µM
[22] = second compound 0.316 µM, first compound 1 µM
[23] = second compound 0.316 µM, first compound 3.16 µM
[24] = second compound 0.316 µM, first compound 10 µM
[25] = second compound 1 µM, first compound 0.0316 µM
[26] = second compound 1 µM, first compound 0.1 µM
[27] = second compound 1 µM, first compound 0.316 µM
[28] = second compound 1 µM, first compound 1 µM
[29] = second compound 1 µM, first compound 3.16 µM
[30] = second compound 1 µM, first compound 10 µM
[31] = second compound 3.16 µM, first compound 0.0316 µM
[32] = second compound 3.16 µM, first compound 0.1 µM
[33] = second compound 3.16 µM, first compound 0.316 µM
[34] = second compound 3.16 µM, first compound 1 µM
[35] = second compound 3.16 µM, first compound 3.16 µM
[36] = second compound 3.16 µM, first compound 10 µM
[37] = second compound 10 µM, first compound 0.0316 µM
[38] = second compound 10 µM, first compound 0.1 µM
[39] = second compound 10 µM, first compound 0.316 µM
[40] = second compound 10 µM, first compound 1 µM
[41] = second compound 10 µM, first compound 3.16 µM
[42] = second compound 10 µM, first compound 10 µM
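Also: spheroids exposed to agents for seven days before readout.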
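For viability, T/C in this document: percent of DMSO vehicle control wells so 100% = untreated growth.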

COC1C=CCC(C)C(C)S(=O)(=O)NC(=O)c2ccc3c(c2)N(CC2CCC21)CC1(CCCc2cc(Cl)ccc21)CO3 (stereo not given) + CNC(=O)c1ccc(Nc2nc(OC3CCCC3)c3c(-c4ccc5nc(C)oc5c4)c[nH]c3n2)c(OC)c1
inactive: viability, T/C [7] 106% | viability, T/C [8] 119% | viability, T/C [9] 85.4% | viability, T/C [10] 68.3% | viability, T/C [11] 43.9% | viability, T/C [12] 23.2% | viability, T/C [13] 105% | viability, T/C [14] 86.5% | viability, T/C [15] 68.8% | viability, T/C [16] 57.4% | viability, T/C [17] 36.8% | viability, T/C [18] 25.1% | viability, T/C [19] 74.1% | viability, T/C [20] 62% | viability, T/C [21] 56.9% | viability, T/C [22] 42.3% | viability, T/C [23] 39.1% | viability, T/C [24] 21.4% | viability, T/C [25] 47.6% | viability, T/C [26] 47.8% | viability, T/C [27] 39.1% | viability, T/C [28] 37.4% | viability, T/C [29] 30.7% | viability, T/C [30] 21.5% | viability, T/C [31] 46.1% | viability, T/C [32] 43.5% | viability, T/C [33] 36.7% | viability, T/C [34] 29.7% | viability, T/C [35] 28.4% | viability, T/C [36] 20.7% | viability, T/C [37] 54.7% | viability, T/C [38] 45.3% | viability, T/C [39] 32.8% | viability, T/C [40] 29.2% | viability, T/C [41] 24.8% | viability, T/C [42] 18.1%
580 nM: IC50 [3]
2200 nM: IC50 [1]
< 31.6 nM: IC50 [4] | IC50 [5]
53.1 nM: IC50 [6]
1370 nM: IC50 [2]

Nc1ccn(C2OC(CO)C(O)C2(F)F)c(=O)n1 (stereo not given) + CN1CCN(c2cc(C(=O)Nc3cc4cc(-c5cnn(C)c5)ccc4cn3)ccn2)CC1
active: viability, T/C [25] 2.74% | viability, T/C [26] 3.71% | viability, T/C [27] 5.04% | viability, T/C [28] 3.41% | viability, T/C [29] 3.52% | viability, T/C [30] 1.82% | viability, T/C [31] 3.79% | viability, T/C [32] 4.62% | viability, T/C [33] 5.76% | viability, T/C [34] 4.04% | viability, T/C [35] 4.01% | viability, T/C [36] 6.04% | viability, T/C [37] 3.95% | viability, T/C [38] 5.3% | viability, T/C [39] 4.73% | viability, T/C [40] 4.61% | viability, T/C [41] 5.93% | viability, T/C [42] 4.49%
inactive: viability, T/C [7] 35.2% | viability, T/C [8] 30.6% | viability, T/C [9] 33.9% | viability, T/C [10] 36.6% | viability, T/C [11] 25.3% | viability, T/C [12] 24.8% | viability, T/C [13] 31.1% | viability, T/C [14] 29.9% | viability, T/C [15] 28.6% | viability, T/C [16] 23% | viability, T/C [17] 20.9% | viability, T/C [18] 19.5% | viability, T/C [19] 18.4% | viability, T/C [20] 20.2% | viability, T/C [21] 16.6% | viability, T/C [22] 19.8% | viability, T/C [23] 15.2% | viability, T/C [24] 13.6%
< 31.6 nM: IC50 [1] | IC50 [2] | IC50 [3] | IC50 [4] | IC50 [5] | IC50 [6]

CC1COCCN1c1cc(C2(S(C)(=N)=O)CC2)nc(-c2ccnc3[nH]ccc23)n1 (stereo not given)
2070 nM and 1960 nM: IC50 (curve of compound)
inactive: viability, T/C (compound 0.0316 µM) 103% and 106% | viability, T/C (compound 0.1 µM) 99.9% and 91.9% | viability, T/C (compound 0.316 µM) 90.5% and 90.1% | viability, T/C (compound 1 µM) 70.1% and 62.4% | viability, T/C (compound 3.16 µM) 37.1% and 40.2% | viability, T/C (compound 10 µM) 31.6% and 31%

CC1(C)CCC(CN2CCN(c3ccc(C(=O)NS(=O)(=O)c4ccc(NCC5CCOCC5)c([N+](=O)[O-])c4)c(Oc4cnc5[nH]ccc5c4)c3)CC2)=C(c2ccc(Cl)cc2)C1 + CN1CCN(c2cc(C(=O)Nc3cc4cc(-c5cnn(C)c5)ccc4cn3)ccn2)CC1
inactive: viability, T/C [7] 91.3% | viability, T/C [8] 97.7% | viability, T/C [9] 93.8% | viability, T/C [10] 92.2% | viability, T/C [11] 78.8% | viability, T/C [13] 69.6% | viability, T/C [14] 63.8% | viability, T/C [15] 65.4% | viability, T/C [16] 68.5% | viability, T/C [17] 55.8% | viability, T/C [19] 27.8% | viability, T/C [20] 24.5% | viability, T/C [21] 28.6% | viability, T/C [22] 27.1% | viability, T/C [23] 20.2% | viability, T/C [24] 4.31%
< 31.6 nM: IC50 [3] | IC50 [4] | IC50 [5] | IC50 [6]
4960 nM: IC50 [1]
3600 nM: IC50 [2]
active: viability, T/C [12] 5.11% | viability, T/C [18] 5.08% | viability, T/C [25] 3.4% | viability, T/C [26] 3.32% | viability, T/C [27] 4.86% | viability, T/C [28] 2.95% | viability, T/C [29] 2.45% | viability, T/C [30] 2.47% | viability, T/C [31] 3.55% | viability, T/C [32] 3.34% | viability, T/C [33] 3.03% | viability, T/C [34] 2.11% | viability, T/C [35] 1.06% | viability, T/C [36] 0.14% | viability, T/C [37] 4.06% | viability, T/C [38] 3.26% | viability, T/C [39] 3.77% | viability, T/C [40] 2.06% | viability, T/C [41] 0.92% | viability, T/C [42] 3.22%

CC(CO)NC(=O)c1cc(-c2ccc(Cl)cc2)nn(-c2cnn(C)c2)c1=O (stereo not given)
inactive: viability, T/C (compound 0.0316 µM) 93.7% and 115% | viability, T/C (compound 0.1 µM) 92.6% and 98.9% | viability, T/C (compound 0.316 µM) 94.8% and 101% | viability, T/C (compound 1 µM) 91.8% and 110% | viability, T/C (compound 3.16 µM) 106% and 116% | viability, T/C (compound 10 µM) 91.5% and 105%
> 10000 nM: IC50 (curve of compound)
